Test results published in US20230086706A1, “Compounds for promoting follicle maturation” (Aarhus Universitet, priority 2020, published 2023).

Experiments:
[1] = tested on: ID8 Mouse Ovarian Surface Epithelial Cell Line; assay: Toxicity assay (cell morphology by light microscopy); assay type: cell-based; conditions: 1 μM compound, cells grown for 2 days, morphology checked using light microscopy
Description: Immediately, 1 μM compound was added to the media and cells were grown for 2 days and morphology checked using light microscopy.

[2] = tested on: ovaries (primordial, primary and secondary follicles); assay: Evaluation of follicle numbers after ovary organ culture with compound; assay type: cell-based, C57BL/6j×CBA F1 hybrid mice; conditions: ovaries of 7-day-old female pups cultured four days; 0.5 μM and 1 μM for 582 and 583, 25 μM for 798 and 798 (so in the source)
Description: C57BL/6j×CBA F1 hybrid mice (Janvier Labs, France) were housed and bred in the animal facilities at Department of Biomedicine, Aarhus University. Animals were housed in a 12:12 h controlled light-dark environment and were provided with food and water ad libitum. 7-day-old female pups were used for the study.
Pups were sacrificed and ovaries were excised. Using a stereomicroscope MZ75 (Leica Microsystems, Germany), excess tissue was removed. […] 200-300 μL of culture medium was added to the well below the insert and up to two ovaries were placed on the membrane of each insert. […] Up to six wells in the 24-well plate were used for inserts. […] The ovaries were cultured at 37° C., 5% CO2 for four days. 150 μL of medium was replaced every other day with fresh culture medium.
Ovaries kept in organ culture for four days were fixed for 24 hours in 4% paraformaldehyde solution at 4° C. After fixation, ovaries were dehydrated in ethanol series using 70%, 96% and 99.9% ethanol. Xylene was used as clearing agent before the ovaries were infiltrated in paraffin wax. 5 μm-sections of samples in paraffin were cut using a microtome (Cut 6062, SLEE medical, Germany). […] The samples were then rinsed in dH2O, stained in hematoxylin for 40 sec., rinsed in dH2O for 5 min., and stained in eosin for 46 sec. The samples were dehydrated in ethanol: 2×2 min. in 96% ethanol, 2×2 min in 99.9% ethanol, and finally cleared up in xylene for at least 30 min before mounting the samples using Eukitt mounting medium (Sigma-Aldrich) and cover glass. […] The follicles of every 3rd to 4th section of each ovary were counted and the distribution of follicles in the different stages in percentage was determined.

`C[n+]1cccc(C(N)=O)c1` [Compound 583, 3-carbamoyl-1-methylpyridin-1-ium] was tested, and the “toxicity to the grown cells / alteration of the morphology of the cells” value [1] was “not to alter the morphology of the cells nor to be toxic to the grown cells” and the “overall appearance and size of the ovaries in culture (visual inspection of ovarian sections)” value (“overall appearance and size” for short) [2] was “healthy and the size was normal, no shrinkage was observed”.
In the case of `NC(=O)c1ccc[n+](Cc2ccccc2)c1` [Compound 582, 1-benzyl-3-carbamoylpyridin-1-ium], the “toxicity to the grown cells / alteration of the morphology of the cells” value [1] is reported as “not to alter the morphology of the cells nor to be toxic to the grown cells” and the “overall appearance and size” value [2] is reported as “healthy and the size was normal, no shrinkage was observed”.
With `NC(=O)c1ccc[n+](C2CCOCC2)c1` [Compound 798, 3-carbamoyl-1-(tetrahydro-2H-pyran-4-yl)pyridin-1-ium] the “toxicity to the grown cells / alteration of the morphology of the cells” value [1] was “not to alter the morphology of the cells nor to be toxic to the grown cells” and the “overall appearance and size” value [2] was “healthy and the size was normal, no shrinkage was observed”.
For `CC1=C2C[C@H]3[C@@H](CC=C4C[C@@H](O)CC[C@@]43C)[C@@H]2CC[C@]12O[C@@H]1C[C@H](C)CN[C@H]1[C@H]2C` [cyclopamine, Cyclopamine, reference compound], the “toxicity to the grown cells / alteration of the morphology of the cells” value [1] was “not to alter the morphology of the cells nor to be toxic to the grown cells”.
